Reference: patent US20140357706A1, “Stearate Compounds” (THE UAB RESEARCH FOUNDATION, priority 2011, published 2014)

What was measured:
Assay type in all cases: cell-based, human
[1] = system: p21^CIP1/WAF1 and p27^KIP1 mRNA; experiment: Quantitative real-time RT-PCR for p21CIP1/WAF1 and p27KIP1 in Hs578T cells; conditions: normalized to 18S rRNA; vs control, P<0.05
Procedure: Total RNA was extracted and purified with TRIZOL Reagent (GIBCO Invitrogen, Carlsbad, Calif.). The first-strand complementary DNA (cDNA) synthesis was achieved using a commercially available kit (New England BioLabs, Beverly, Mass.) according to the protocol from the manufacturer. Briefly, 1 μg of total RNA was reverse-transcribed using M-MuLV reverse transcriptase (25 U) and dT23VN primer (5 μM) in a final volume of 25 μl.
Quantitative real-time reverse-transcription polymerase chain reaction (RT-PCR) cDNA samples were diluted to appropriate concentrations and used for a real-time RT-PCR assay in a volume of 25 μl, containing 2 μl DNA template, 12.5 μl SYBR® Green PCR Master Mix (Applied Biosystems, Foster City, Calif.) and 0.4 μM each specific primer. The gene expression of p21^CIP1/WAF1 and p27^KIP1 were determined by real-time quantitative RT-PCR and the house-keeping gene 18S ribosomal RNA (rRNA) was used as an internal control to normalize the variable RNA loading in each sample. […] The fluorescence intensity corresponding to the CT was used to quantitate the target cDNA in the mixture of samples with […] dilutions, employing the standard curve for each target gene. Sequence Detector Software (Applied Biosystems) was used to extract the data of the quantitative real-time RT-PCR. […]

[2] = system: Ras; experiment: Ras activation assay in Hs578T cells; conditions: with or without EGF
Procedure: The concentration of stearate used to treat the Hs578T cells was 50 μM. When EGF was used, the concentration was 1 nM EGF. Before the treatment with stearate or EGF, cells were first starved for 24-48 hours. Stearate was loaded onto fatty acid-free bovine serum albumin (BSA) according to the method reported by Spector et al. (13); briefly, stearate (0.5 g) was dissolved in chloroform (100 ml) and mixed well with 10 g diatomaceous earth in a 1 liter flask. The mixture was stirred and dried under nitrogen until powder. BSA is a physiological carrier of fatty acids and was used to avoid the introduction of organic solvents to solutions coming into contact with cells. Fatty acid-free BSA (1 g) was dissolved in 100 ml with Dulbecco's modified Eagle's medium without phenol red and mixed with 3 g of the stearate/diatomaceous earth mixture with stirring for 45 min. The stearate/BSA solution was filtered through a 0.45 μm filter, and adjusted to pH 7.4. The concentration of stearate in the solution was detected with the NEFA C Kit from Wako Chemicals GmbH (Neuss, Germany). […]
Ras and Rho activation assay kits were purchased from Millipore (Billerica, Mass.). […] The beads were washed three times with lysis buffer B. Bound Ras-GTP and Rho-GTP proteins were detected by immunoblot using Ras and Rho antibodies.

[3] = system: Rho mRNA; experiment: RT-PCR for RhoA, RhoB, RhoC in Hs578T cells
Procedure: In total, 30-40% confluent Hs578T cells were treated with stearate (50 μM) for 48 hours after starvation for 24 hours. Total RNA was extracted and reverse-transcribed as described in RT-PCR for p21^CIP1/WAF1 and p27^[…]. The PCR assay was performed in a volume of 50 μl, containing 4μl DNA template, 45 μl Platinum PCR Supermix (Invitrogen) and 0.2 μM each specific primer. PCR specificity and efficiency were improved by using hot start PCR with 3 min pre-denaturation, at 95° C., and 30 cycles of denaturation (95° C., 30 s), annealing (52° C., 30 s) and 1 min extension (72° C.). The PCR products (20 INS>μl) were analyzed by means of 1% agarose in tris-acetate ethylenediaminetetraacetic acid gel electrophoresis and visualized by ethidium bromide staining under ultraviolet; digital images were analyzed by means of a FUJI Medical System (FUJIFILM) and the bands quantified by Quantity Software (FUJIFILM). […] was used to normalize the variable RNA loading in each sample. The calculated result represents the relative expression levels of target genes compared with its expression in the control group after the value of target genes was normalized to GAPDH expression levels.

Structure (SMILES): CCCCCCCCCCCCCCCCCC(=O)O [stearate, Stearic acid]
- p21^CIP1/WAF1 mRNA expression [1]: increased
- Binding of GTP to Ras [2]: increases
- Rho mRNA expression ([3]; over 24 h): neither EGF nor stearate affected
- RhoA mRNA expression ([3]; stearate 50 μM for 48 h): significantly decreased
- RhoB mRNA expression ([3]; stearate 50 μM for 48 h): remained unchanged
- RhoC mRNA expression ([3]; stearate 50 μM for 48 h): significantly decreased
- Total Rho mRNA expression ([3]; stearate 50 μM for 48 h): significantly decreased
